System: MDA-MB-468 spheroids with HUVEC/MSC, viability
Assay: Anticancer human tumor MDA-MB-468 cell line growth inhibition [PI3K];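 note: spheroids exposed to agents for seven days before readout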;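 for viability, T/C: 100% = DMSO vehicle control viability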
Conditions: for IC50: curve of first compound; for viability, T/C: stronger effect = lower value
From the text: Combinatorial screen of targeted agents with the PI3K inhibitors inavolisib, alpelisib, duvelisib, and copanlisib in multi-cell type tumor spheroids
A high-throughput screen of multi-cell type tumor spheroids was designed to identify active combinations of targeted small molecules and PI3K pathway inhibitors. Complex spheroids include a stromal component modeled by human endothelial cells (HUVEC) and fibroblasts modeled by human mesenchymal stem cells (MSCs). The concentration ranges selected for each drug and investigational agent were based upon clinically achievable concentrations if the clinical Cmax of the agent was known.
Compounds. The drugs and investigational agents: inavolisib (NSC800729), alpelisib (NSC765974), duvelisib (NSC772469), copanlisib (NSC816437), ipatasertib (NSC767898), afuresertib (NSC778305), talazoparib (NSC767125), sapanisertib (NSC764658), selumetinib (NSC741078), tovorafenib (DAY101, NSC766906), vemurafenib (NSC761431), ravoxertinib (NSC781343), sotorasib (NSC818433), MRTX1133 (NSC 836407), abemaciclib (NSC 768073), palbociclib (NSC758247), venetoclax (NSC 766270), SY5609 (NSC837396), enzalutamide (NSC755605), and darolutamide (NSC825331), were obtained from the National Cancer Institute (NCI) Developmental Therapeutics Program Chemical Repository. The FDA-approved anticancer drug set is available from the NCI Developmental Therapeutics Program. […] The stock solutions were prepared in dimethyl sulfoxide (DMSO, Sigma-Aldrich, St. Louis, MO, cat. D2650) at 800-fold the tested concentration and stored at -70 degrees C prior to their use. All drugs and investigational agents were tested over a range starting from a high concentration at or near the clinical Cmax and decreasing in half-log increments. If the clinical Cmax for an agent had not been determined, the highest concentration tested was 10 microM.
Cell Culture. All cells were maintained in an incubator at 37 degrees C and 5% CO2 with 95% humidity. The PDC lines were cultured according to standard operating procedures established by the NCI PDMR (https://pdmr.cancer.gov/sops/default.htm). All PDCs were thawed and cultured in Matrigel-coated flasks prepared with a working solution of 1X Ham's F-12 nutrient mix, without supplementation (Invitrogen, Waltham, MA, cat. 11765054), 100 U/mL penicillin-streptomycin (Invitrogen, cat. 15140122), and 2.5% Matrigel (Corning Inc., Corning, NY, cat. 354248) for the first three passages. The 354836-022-R-J1-PDC, 475296-252-R-J1-PDC, and 997726-040-R-J2-PDC lines were cultured in 6A media, which includes advanced DMEM/F-12 (Thermo Fisher Scientific, cat. 12634028), 10 mM HEPES (Thermo Fisher Scientific, cat. 15630080), 1X GlutaMAX supplement (Thermo Fisher Scientific, cat. 35050061), 0.1 mg/mL primocin (InvivoGen, San Diego, CA, cat. ant-pm-2), 10% defined fetal bovine serum, heat inactivated (HyClone Laboratories Inc., Logan, UT, cat. SH30070.03HI), 50% L-WRN conditioned media (ATCC, cat. CRL-3276), 1.25 mM N-Acetyl-L-cysteine (Sigma-Aldrich, cat. A9165), 10 mM nicotinamide (Sigma-Aldrich, cat. N0636), 1X B-27 supplement (Thermo Fisher Scientific, cat. 17504044), 1X N-2 supplement (Thermo Fisher Scientific, cat. 17502048), and 10 microM Y-27632 dihydrochloride (Tocris Bioscience, Bristol, United Kingdom, cat. 1254). The 624824-186-R-J2-PDC line was cultured in 6C/Colon 1B media, which includes all 6A media components plus 50 ng/mL human EGF recombinant protein (Thermo Fisher Scientific, cat. PHG0311). […]

[1] = second compound 0.0316 µM, first compound 0.0316 µM
[2] = second compound 0.0316 µM, first compound 0.1 µM
[3] = second compound 0.0316 µM, first compound 0.316 µM
[4] = second compound 0.0316 µM, first compound 1 µM
[5] = second compound 0.0316 µM, first compound 3.16 µM
[6] = second compound 0.0316 µM, first compound 10 µM
[7] = second compound 0.1 µM, first compound 0.0316 µM
[8] = second compound 0.1 µM, first compound 0.1 µM
[9] = second compound 0.1 µM, first compound 0.316 µM
[10] = second compound 0.1 µM, first compound 1 µM
[11] = second compound 0.1 µM, first compound 3.16 µM
[12] = second compound 0.1 µM, first compound 10 µM
[13] = second compound 0.316 µM, first compound 0.0316 µM
[14] = second compound 0.316 µM, first compound 0.1 µM
[15] = second compound 0.316 µM, first compound 0.316 µM
[16] = second compound 0.316 µM, first compound 1 µM
[17] = second compound 0.316 µM, first compound 3.16 µM
[18] = second compound 0.316 µM, first compound 10 µM
[19] = second compound 1 µM, first compound 0.0316 µM
[20] = second compound 1 µM, first compound 0.1 µM
[21] = second compound 1 µM, first compound 0.316 µM
[22] = second compound 1 µM, first compound 1 µM
[23] = second compound 1 µM, first compound 3.16 µM
[24] = second compound 1 µM, first compound 10 µM
[25] = second compound 3.16 µM, first compound 0.0316 µM
[26] = second compound 3.16 µM, first compound 0.1 µM
[27] = second compound 3.16 µM, first compound 0.316 µM
[28] = second compound 3.16 µM, first compound 1 µM
[29] = second compound 3.16 µM, first compound 3.16 µM
[30] = second compound 3.16 µM, first compound 10 µM
[31] = second compound 10 µM, first compound 0.0316 µM
[32] = second compound 10 µM, first compound 0.1 µM
[33] = second compound 10 µM, first compound 0.316 µM
[34] = second compound 10 µM, first compound 1 µM
[35] = second compound 10 µM, first compound 3.16 µM
[36] = second compound 10 µM, first compound 10 µM

Cn1ncc(Cl)c1-c1cc(C(=O)NC(CN)Cc2cccc(F)c2)sc1Cl (stereo unspecified) + COc1c(OCCCN2CCOCC2)ccc2c3n(c(=NC(=O)c4cnc(N)nc4)nc12)CCN3
IC50 (second compound 0.00316 µM): 0.331 µM | IC50 (second compound 0.01 µM): 0.236 µM | IC50 (second compound 0.0316 µM): 0.152 µM | IC50 (second compound 0.1 µM): < 0.0316 µM | IC50 (second compound 0.316 µM): < 0.0316 µM | IC50 (second compound 1 µM): < 0.0316 µM | viability, T/C (second compound 0.00316 µM, first compound 0.0316 µM): 78.5% | viability, T/C (second compound 0.00316 µM, first compound 0.1 µM): 66.2% | viability, T/C (second compound 0.00316 µM, first compound 0.316 µM): 50.1% | viability, T/C (second compound 0.00316 µM, first compound 1 µM): 36.1% | viability, T/C (second compound 0.00316 µM, first compound 3.16 µM): 25.3% | viability, T/C (second compound 0.00316 µM, first compound 10 µM): 17.2% | viability, T/C (second compound 0.01 µM, first compound 0.0316 µM): 71.8% | viability, T/C (second compound 0.01 µM, first compound 0.1 µM): 64.2% | viability, T/C (second compound 0.01 µM, first compound 0.316 µM): 42.7% | viability, T/C (second compound 0.01 µM, first compound 1 µM): 33.2% | viability, T/C (second compound 0.01 µM, first compound 3.16 µM): 22.9% | viability, T/C (second compound 0.01 µM, first compound 10 µM): 14.6% | viability, T/C [1]: 66.5% | viability, T/C [2]: 58.7% | viability, T/C [3]: 37.2% | viability, T/C [4]: 28.5% | viability, T/C [5]: 22.1% | viability, T/C [6]: 12.1% | viability, T/C [7]: 49.6% | viability, T/C [8]: 40% | viability, T/C [9]: 33.9% | viability, T/C [10]: 25.4% | viability, T/C [11]: 17.5% | viability, T/C [12]: 7.31% | viability, T/C [13]: 25.1% | viability, T/C [14]: 21.1% | viability, T/C [15]: 20.4% | viability, T/C [16]: 14.9% | viability, T/C [17]: 12.7% | viability, T/C [18]: 4.16% | viability, T/C [19]: 3.44% | viability, T/C [20]: 3.28% | viability, T/C [21]: 3.02% | viability, T/C [22]: 3.44% | viability, T/C [23]: 3.8% | viability, T/C [24]: 1.32%

CC1(C)CCC(CN2CCN(c3ccc(C(=O)NS(=O)(=O)c4ccc(NCC5CCOCC5)c([N+](=O)[O-])c4)c(Oc4cnc5[nH]ccc5c4)c3)CC2)=C(c2ccc(Cl)cc2)C1 + CC(Nc1ncnc2nc[nH]c12)c1cc2cccc(Cl)c2c(=O)n1-c1ccccc1
IC50 (second compound 0.0316 µM): 4.8 µM | IC50 (second compound 0.1 µM): 4.53 µM | IC50 (second compound 0.316 µM): 4.3 µM | IC50 (second compound 1 µM): 3.73 µM | IC50 (second compound 3.16 µM): 0.0316 µM | IC50 (second compound 10 µM): < 0.0316 µM | viability, T/C [1]: 90.5% | viability, T/C [2]: 84.6% | viability, T/C [3]: 87% | viability, T/C [4]: 87.4% | viability, T/C [5]: 69.9% | viability, T/C [6]: 15.2% | viability, T/C [7]: 83.8% | viability, T/C [8]: 82.2% | viability, T/C [9]: 79.6% | viability, T/C [10]: 76.1% | viability, T/C [11]: 65.1% | viability, T/C [12]: 18.3% | viability, T/C [13]: 76.5% | viability, T/C [14]: 68.5% | viability, T/C [15]: 78% | viability, T/C [16]: 68.8% | viability, T/C [17]: 62.6% | viability, T/C [18]: 17.2% | viability, T/C [19]: 58.9% | viability, T/C [20]: 65% | viability, T/C [21]: 69.9% | viability, T/C [22]: 72.2% | viability, T/C [23]: 55.8% | viability, T/C [24]: 15.5% | viability, T/C [25]: 50% | viability, T/C [26]: 46.9% | viability, T/C [27]: 47.2% | viability, T/C [28]: 49.4% | viability, T/C [29]: 50.5% | viability, T/C [30]: 13.8% | viability, T/C [31]: 38.4% | viability, T/C [32]: 30.9% | viability, T/C [33]: 39% | viability, T/C [34]: 42.5% | viability, T/C [35]: 32.3% | viability, T/C [36]: 15.4%

CC(Cn1ccc(-c2ccc(C#N)c(Cl)c2)n1)NC(=O)c1cc(C(C)O)[nH]n1 (stereo unspecified) + CC(Nc1ncnc2nc[nH]c12)c1cc2cccc(Cl)c2c(=O)n1-c1ccccc1
IC50 (second compound 0.0316 µM): > 10 µM | IC50 (second compound 0.1 µM): > 10 µM | IC50 (second compound 0.316 µM): > 10 µM | IC50 (second compound 1 µM): > 10 µM | IC50 (second compound 3.16 µM): > 10 µM | IC50 (second compound 10 µM): < 0.0316 µM | viability, T/C [1]: 82% | viability, T/C [2]: 92.4% | viability, T/C [3]: 90.2% | viability, T/C [4]: 90.3% | viability, T/C [5]: 88.8% | viability, T/C [6]: 79.1% | viability, T/C [7]: 86.8% | viability, T/C [8]: 80.7% | viability, T/C [9]: 76.5% | viability, T/C [10]: 88.4% | viability, T/C [11]: 89% | viability, T/C [12]: 71.7% | viability, T/C [13]: 85.7% | viability, T/C [14]: 93.6% | viability, T/C [15]: 72.7% | viability, T/C [16]: 76.1% | viability, T/C [17]: 70.7% | viability, T/C [18]: 66.3% | viability, T/C [19]: 55.9% | viability, T/C [20]: 69.1% | viability, T/C [21]: 60.2% | viability, T/C [22]: 73.9% | viability, T/C [23]: 66.6% | viability, T/C [24]: 57.6% | viability, T/C [25]: 60.6% | viability, T/C [26]: 58.8% | viability, T/C [27]: 60.8% | viability, T/C [28]: 52.4% | viability, T/C [29]: 56.5% | viability, T/C [30]: 47.1% | viability, T/C [31]: 45.8% | viability, T/C [32]: 40.5% | viability, T/C [33]: 40.7% | viability, T/C [34]: 43.1% | viability, T/C [35]: 44.5% | viability, T/C [36]: 38.6%
